Measured values from patent US20260234165A1, “MACROCYCLIC COMPOUNDS, PREPARATION METHOD THEREFOR, AND USE THEREOF” (GENFLEET THERAPEUTICS (SHANGHAI) INC., priority 2004, published 2026).
pIC50: −log10 of the molar value. Like-named read-outs stand apart in the source and are kept apart here.

How the values were obtained:
Format in all cases: cell-based, human
[1] = tested on: p-ERK in NCI-H441 cells (KRAS G12V mutation); assay: Cell p-ERK assay (HTRF) in NCI-H441 cells; details: for pIC50: NCI-H441 cells, 3 h compound incubation, HTRF p-ERK T202/Y204, read-out: H441 p-ERK IC50
Procedure, shortened: (§1)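 Cells are plated (AsPC-1 at 10000, NCI-H441 at 20000 per well) and cultured overnight. Next day compound is added in a 3.16-fold dilution series with 0.1% DMSO and left 3 h. After lysis, p-ERK antibodies incubate 4 h before HTRF reading and four-parameter IC50 fitting.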

[2] = tested on: NCI-H441 cells; assay: 3D cell proliferation assay (CellTiter Glo-3D), NCI-H441; details: medium with 2% FBS, read-out: H441 AP IC50
Procedure, shortened: (§2)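 Luminescence read-out (CellTiter-Glo 3D) after 5-day compound exposure at 37 °C, 5% CO2. Cells: NCI-H441 and AsPC-1, 800/well, RPMI-1640 + 2% FBS, 0.1% DMSO final. IC50 by four-parameter fit of % inhibition against log concentration.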

[3] = tested on: AsPC-1 cells (KRAS G12D mutation); assay: 3D cell proliferation assay (CellTiter Glo-3D), AsPC-1; details: medium with 2% FBS, read-out: AsPC-1 AP IC50
Procedure, shortened: as §2

[4] = tested on: p-ERK in AsPC-1 cells (KRAS G12D mutation); assay: Cell p-ERK assay (HTRF) in AsPC-1 cells; details: for pIC50: AsPC-1 cells, 3 h compound incubation, HTRF p-ERK T202/Y204, read-out: AsPC-1 p-ERK IC50
Procedure, shortened: as §1

[5] = Homo sapiens, NCI-H441, 3D cell proliferation (CellTiter Glo-3D)
[6] = Homo sapiens, ASPC1, 3D cell proliferation (CellTiter Glo-3D)
[7] = 3D cell proliferation (CellTiter Glo-3D)

Compound | pIC50 ([1]; Homo sapiens, NCI-H441, 3 h) | pIC50 [2, 5] | pIC50 [3, 6] | pIC50 ([4]; Homo sapiens, ASPC1, 3 h) | pIC50 [1] | pIC50 [2, 7] | pIC50 [3, 7] | pIC50 [4] | IC50 ([1]; Homo sapiens, NCI-H441, 3 h, read-out: H441 p-ERK IC50(nM)) [nM] | pIC50 ([2]; Homo sapiens, 3D cell proliferation (CellTiter Glo-3D)) | IC50 ([4]; Homo sapiens, ASPC1, 3 h, read-out: AsPC-1 p-ERK IC50(nM)) [nM]
[2H]C([2H])([2H])O[C@@H](C)c1ncc(N2CCN(C)CC2)cc1-c1c2c3cc(ccc3n1CC)-c1csc(n1)C[C@H](NC(=O)C(C)(C)F)C(=O)N1CCC[C@H](N1)C(=O)OCC(C)(C)C2 (atropisomer, axis not shown; (Ra)) [Compound Z64, N-((1^2R,6^3S,4S,Z)-1^1-ethyl-(Ra)-1^2-(2-((S)-1-(methoxy-d3)ethyl)-5-(4-methylpiperazin-1-yl)pyridin-3-yl)-10,10-dimethyl-5,7-dioxo-6^1,6^2,6^3,6^4,6^5,6^6-hexahydro-1^1H-8-oxa-2(4,2)-thiazola-1(5,3)-indola-6(1,3)-pyridazinacycloundecaphane-4-yl)-2-fluoro-2-methylpropanamide] | 8.48 | 8.20 | 7.89 | 8.20 | – | – | – | – | – | – | –
COCCn1c(-c2cc(C#CCN(C)C[Si](C)(C)C)cnc2[C@H](C)OC)c2c3cc(ccc31)-c1csc(n1)C[C@H](NC(=O)[C@H]1[C@@H]3COC[C@@H]31)C(=O)N1CCC[C@H](N1)C(=O)OCC(C)(C)C2 (atropisomer, axis not shown; (Ra)) [Compound Z1091, (1R,5S,6r)-N-((6^3S,4S,Z)-1^1-(2-methoxyethyl)-1^2-(Ra)-(2-((S)-1-methoxyethyl)-5-(3-(methyl((trimethylsilyl)methyl)amino)prop-1-yn-1-yl)pyridin-3-yl)-10,10-dimethyl-5,7-dioxo-6^1,6^2,6^3,6^4,6^5,6^6-hexahydro-1^1H-8-oxa-2(4,2)-thiazola-1(5,3)-indola-6(1,3)-pyridazinacycloundecaphane-4-yl)-3-oxabicyclo[3.1.0]hexane-6-carboxamide] | – | – | 8.78 | – | – | – | – | – | 1.92 | 8.70 | 2.34
CCn1c(-c2cc(C#CCN3CCCOCC3)cnc2[C@H](C)OC)c2c3cc(ccc31)-c1csc(n1)C[C@H](NC(=O)C1[C@H]3COC[C@@H]13)C(=O)N1CCC[C@H](N1)C(=O)OCC(C)(C)C2 (atropisomer, axis not shown; (Ra)) [Compound Z1030] | 9.77 | 9.55 | 9.41 | 9.77 | – | – | – | – | – | – | –
CCn1c(-c2cc(C#CCN3CCCOCC3)cnc2[C@H](C)OC)c2c3cc(ccc31)-c1csc(n1)C[C@H](NC(=O)C[C@@H]1CC1(F)F)C(=O)N1CCC[C@H](N1)C(=O)OCC(C)(C)C2 (atropisomer, axis not shown; (Ra)) [Compound Z932-1, N-((6^3S,4S,Z)—(Ra)-1′-(5-(3-(1,4-oxazepan-4-yl)prop-1-yn-1-yl)-2-((S)-1-methoxyethyl)pyridin-3-yl)-1^1-ethyl-10,10-dimethyl-5,7-dioxo-6^1,6^2,6^3,6^4,6^5,6^6-hexahydro-1^1H-8-oxa-2(4,2)-thiazola-1(5,3)-indola-6(1,3)-pyridazinacycloundecaphane-4-yl)-2-((R)-2,2-difluorocyclopropyl)acetamide] | 8.99 | 8.65 | 8.42 | 8.64 | – | – | – | – | – | – | –
CCn1c(-c2cc(C#CCN3CC(F)(F)C3)cnc2[C@H](C)OC)c2c3cc(ccc31)-c1csc(n1)C[C@H](NC(=O)[C@H]1[C@H](C)[C@@H]1C)C(=O)N1CCC[C@H](N1)C(=O)OCC(C)(C)C2 [Compound Z390-1, (2R,3S)—N-((6^3S,4S,Z)-1^2-(5-(3-(3,3-difluoroazetidin-1-yl)prop-1-yn-1-yl)-2-((S)-1-methoxyethyl)pyridin-3-yl)-1^1-ethyl-10,10-dimethyl-5,7-dioxo-6^1,6^2,6^3,6^4,6^5,6^6-hexahydro-1^1H-8-oxa-2(4,2)-thiazola-1(5,3)-indola-6(1,3)-pyridazinacycloundecaphane-4-yl)-2,3-dimethylcyclopropane-1-carboxamide] | 9.40 | 9.32 | 9.27 | 9.47 | – | – | – | – | – | – | –

Second part, led by results:

pIC50 ([1]; Homo sapiens, NCI-H441, 3 h) | pIC50 [2, 5] | pIC50 [3, 6] | pIC50 ([4]; Homo sapiens, ASPC1, 3 h) | pIC50 [1] | pIC50 [2, 7] | pIC50 [3, 7] | pIC50 [4] | Compound | IC50 ([1]; Homo sapiens, NCI-H441, 3 h, read-out: H441 p-ERK IC50(nM)) [nM] | pIC50 ([2]; Homo sapiens, 3D cell proliferation (CellTiter Glo-3D)) | IC50 ([4]; Homo sapiens, ASPC1, 3 h, read-out: AsPC-1 p-ERK IC50(nM)) [nM]
8.01 | 8.18 | 7.71 | 7.62 | – | – | – | – | CCn1c(-c2cc([C@H]3CCN4CCOC[C@@H]4C3)cnc2[C@H](C)OC)c2c3cc(ccc31)-c1csc(n1)C[C@H](NC(=O)[C@H]1[C@H](C)[C@@H]1C)C(=O)N1CCC[C@H](N1)C(=O)OCC1(CC1)C2 (single isomer, unassigned) [Compound Z79] | – | – | –
9.54 | 9.44 | 9.19 | 9.40 | – | – | – | – | CCn1c(-c2cc(C#C[C@]3(C)CCCN3C)cnc2[C@H](C)OC)c2c3cc(ccc31)-c1csc(n1)C[C@H](NC(=O)[C@H]1[C@H](C)[C@@H]1C)C(=O)N1CCC[C@H](N1)C(=O)OCC(C)(C)C2 (atropisomer, axis not shown; (Ra)) [Compound Z642] | – | – | –
9.70 | 9.62 | 9.44 | 9.48 | – | – | – | – | CCn1c(-c2cc(C#CC(C)(C)N3CCCOCC3)cnc2[C@H](C)OC)c2c3cc(ccc31)-c1csc(n1)C[C@H](NC(=O)[C@H]1[C@H](C)[C@@H]1C)C(=O)N1CCC[C@H](N1)C(=O)OCC(C)(C)C2 (atropisomer, axis not shown; (Ra)) [Compound Z625, (1r,2R,3S)—N-((6S,4S,Z)-1^1-ethyl-(Ra)-1^2-(2-((S)-1-methoxyethyl)-5-(3-(1,4-oxazepan-4-yl)-3-methylbut-1-yn-1-yl)pyridin-3-yl)-10,10-dimethyl-5,7-dioxo-6^1,6^2,6^3,6^4,6^5,6^6hexahydro-1^1H-8-oxa-2(4,2)-thiazola-1(5,3)-indola-6(1,3)-pyridazinacycloundecaphane-4-yl)-2,3-dimethylcyclopropane-1-carboxamide] | – | – | –
9.57 | 9.43 | 9.49 | 9.54 | – | – | – | – | CCn1c(-c2cc(OCCN3CCOC4(CC4)C3)cnc2[C@H](C)OC)c2c3cc(ccc31)-c1csc(n1)C[C@H](NC(=O)[C@H]1[C@H](C)[C@@H]1C)C(=O)N1CCC[C@H](N1)C(=O)OCC(C)(C)C2 (atropisomer, axis not shown; (Sa)) [Compound Z551, (1r,2R,3S)—N-((6^3R,4R,Z)—(Sa)-1^2-(5-(2-(4-oxa-7-azaspiro[2,5]octan-7-yl)ethoxy)-2-((S)-1-methoxyethyl)-3-ylpyridin)-1^1-ethyl-10,10-dimethyl-5,7-dioxo-6^1,6^2,6^3,6^4,6^5,6^6-hexahydro-1^1H-8-oxa-2(4,2)-thiazola-1(5,3)-indola-6(1,3)-pyridazinacycloundecaphane-4-yl)-2,3-dimethylcyclopropane-1-carboxamide] | – | – | –
7.96 | 7.73 | 7.53 | 7.73 | – | – | – | – | CCn1c(-c2cc(OCC3(N4CCC4)CC3)cnc2[C@H](C)OC)c2c3cc(ccc31)-c1csc(n1)C[C@H](NC(=O)[C@H]1[C@H](C)[C@@H]1C)C(=O)N1CCC[C@H](N1)C(=O)OCC1(CC1)C2 [Compound Z333] | – | – | –
– | – | – | – | 9.85 | 9.74 | 9.85 | 9.82 | CCn1c(-c2cc(C#CCN3CCOC[C@@H]3C)cnc2[C@H](C)OC)c2c3cc(ccc31)-c1csc(n1)C[C@H](NC(=O)[C@H]1[C@H](C)[C@@H]1C)C(=O)N1CCCC(N1)C(=O)OCC(C)(C)C2 (atropisomer, axis not shown; (Ra)) [Compound Z814] | – | – | –
– | – | – | – | 9.35 | 9.44 | 8.95 | 9.27 | CCn1c(-c2cc(OCCN3CCS(=O)(=O)CC3)cnc2[C@H](C)OC)c2c3cc(ccc31)-c1csc(n1)C[C@H](NC(=O)C(C)C(C)C)C(=O)N1CCC[C@H](N1)C(=O)OCC(C)(C)C2 (stereo partly drawn) [Compound Z607, N-((6^3S,4S,Z)—(R4)-1^2(5-(2-(1,1-dioxidothiomorpholino)ethoxy)-2-((S)-1-methoxyethyl)pyridin-3-yl)-1^1-ethyl-10,10-dimethyl-5,7-dioxo-6^1,6^2,6^3,6^4,6^5,6^6-hexahydro-1^1H-8-oxa-2(4,2)-thiazola-1(5,3)-indola-6(1,3)-pyridazinacycloundecaphane-4-yl)-2,3-dimethylbutanamide] | – | – | –
9.66 | 9.66 | 9.28 | 9.46 | – | – | – | – | [2H]C([2H])([2H])C1(C([2H])([2H])[2H])COC(=O)[C@@H]2CCCN(N2)C(=O)[C@@H](NC(=O)[C@H]2[C@H](C)[C@@H]2C)Cc2nc(cs2)-c2ccc3c(c2)c(c(-c2cc(OCCN4CCOC5(CC5)C4)cnc2[C@H](C)OC)n3CC)C1 (atropisomer, axis not shown; (Ra)) [Compound Z501, (1r,2R,3S)—N-((6^3S,4S,Z)-1^1-ethyl-(Ra)-1^2-(5-(2-(4-oxa-7-azaspiro[2.5]octan-7-yl)ethoxy)-2-((S)-1-methoxyethyl)pyridin-3-yl)-10,10-bis(methyl-d3)-5,7-dioxo-6^1,6^2,6^3,6^4,6^5,6^6-hexahydro-11H-8-oxo-2(4,2)-thiazola-1(5,3)-indola-6(1,3)-pyridazinacycloundecaphane-4-yl)-2,3-dimethylcyclopropane-1-carboxamide] | – | – | –
